# Results: patent US20220008553A1, “ANTI-ERBB2 ANTIBODY-DRUG CONJUGATE AND COMPOSITION THEREOF, PREPARATION METHOD THEREFOR, AND USE THEREOF” (SICHUAN KELUN-BIOTECH BIOPHARMACEUTICAL CO., LTD., priority 2015, published 2022)
# What was measured:
# [1] = tested on: human gastric cancer cell line NCI-N87; settings: mouse, in vivo
# Description: (§1) The change of tumor volume and animal weight were measured for calculation of the efficacy (tumor-inhibitory efficacy) of the antibody-drug conjugates in the tumor-bearing mice.
# (§2) After gently shaking, the mother solutions were sub-packed and stored at −80° C. Treatment solutions for use were obtained by dilution with normal saline, and a normal saline at the same concentration was used as solvent control.
# (§3) The tumor-bearing mice (models obtained in 1.2) with tumor volume of 100-200 mm^3 were randomly assigned (the number of samples in each group was determined according to sample quantity), 7 mice per group. The dosage was 10 ml/kg. The route of administration was single intravenous injection in caudal vein. After administration, the tumor diameter was measured with vernier caliper twice a week for an observation period of 8 weeks, and the tumor volume was calculated according to the following equation: V=0.5 a^2×b, wherein a and b represent the […] of the tumor, respectively. Animal deaths were observed and recorded daily.
# (§4) The tumor growth inhibition TGI (%) was calculated with the following equation for evaluating the antitumor efficacy of the antibody-drug conjugates: […]
# [2] = tested on: breast cancer cell line BT474; settings: mouse, in vivo
# Description: as §1, §2, §3, §4
# [3] = tested on: ovarian cancer cell line SK-OV-3; settings: mouse, in vivo
# Description: as §1, §2, §3, §4
# JIMT-1 cells = settings: 3 mg/kg, single injection via tail vein, 31st day after injection
# Description: (§5) NOD/SCID mice were subcutaneously inoculated with JIMT-1 cells to establish a subcutaneous xenograft model of human-derived breast cancer. […] Each group has 8 mice, and the administration was a single injection via tail vein. Tumor volume was measured on the 31st day after the single injection (i.e., 43rd day after inoculation of JIMT-1 cells), and TGI was calculated. The efficacy was evaluated based on TGI, and the tolerance was evaluated based on body weight changes and death of the mice. TGI was calculated as described above in (1).
# BT-474 (HER2+++) = settings: 1 h incubation, FACS
# Description: (§6) The fluorescent intensity of cell surface binding was measured with FACS to determine the affinity of the drugs to the above cells.
# JIMT-1 (HER2+) = settings: 1 h incubation, FACS
# Description: as §6
# MDA-MB-468 (HER2−) = settings: 1 h incubation, FACS
# Description: as §6
# GA0006 tumor mass = settings: 15 mg/kg, single injection via tail vein, 21st day after injection
# Description: as §5, with “BALB/c nude” for “NOD/SCID”, “GA0006 tumor mass” for “JIMT-1 cells”, “gastric” for “breast”, “cancer. The administration was conducted when the average tumor volume reached 141 mm^3.” for “cancer.”, “21st” for “31st”, “injection,” for “injection (i.e., 43rd day after inoculation of JIMT-1 cells),”
# BT-474 cells = settings: 3 mg/kg, single injection via tail vein, 31st day after injection
# Description: NOD/SCID mice were orthotopically inoculated with BT-474 cells to establish an orthotopic xenograft model of human-derived breast cancer. […] Each group has 10 mice, and the administration was a single injection via tail vein. Tumor volume was measured on the 31st day after the single injection (i.e., 39th day after inoculation of BT-474 cells), and TGI was calculated. The efficacy was evaluated based on TGI.
# wherein VTe: Average tumor volume of treatment group at the end of observation • VTs: Average tumor volume of treatment group at the administration • VCe: Average tumor volume of control group at the end of observation • VCs: Average tumor volume of control group at the administration
# BR0438 tumor mass = settings: 15 mg/kg, single injection via tail vein, 21st day after injection
# Description: as §5, with “BR0438 tumor mass” for “JIMT-1 cells”, “cancer. The administration was conducted when the average tumor volume reached 173 mm^3.” for “cancer.”, “21st” for “31st”, “injection,” for “injection (i.e., 43rd day after inoculation of JIMT-1 cells),”
# Calu-3 cells = settings: 1 mg/kg, single injection via tail vein, 31st day after injection
# Description: as §5, with “BALB/c Nude” for “NOD/SCID”, “Calu-3” for “JIMT-1”, “lung adenocarcinoma.” for “breast cancer.”, “(36th” for “(i.e., 43rd”
substance,measurement,setting,value
T-DM1,final tumor volume (mm^3),[1],774.76 mm^3
same,TGI (%),[2],54.80%
same,TGI (%),[3],−11.04%
same,TGI (%),JIMT-1 cells,28%
same,affinity (EC50),BT-474 (HER2+++),2.419 µg/mL
same,affinity (EC50),JIMT-1 (HER2+),0.5105 µg/mL
same,affinity (EC50) (ng/ml),MDA-MB-468 (HER2−),No binding
same,TGI (%),GA0006 tumor mass,86.97%
same,TGI (%),BT-474 cells,43%
same,TGI (%),BR0438 tumor mass,3.65%
same,TGI (%),Calu-3 cells,64%
